Like-named read-outs stand apart in the source and are kept apart here.
What was measured:
Test in all cases: Postemergence herbicide evaluation, percent reduction in plant size vs untreated control, 21 days after treatment
[1] = system: Amaranthus rudis (AMATA); assay type: in vivo, Amaranthus rudis (tall water hemp); details: Amaranthus tuberculatus, post-emergence, 504 h, AMATA, postemergence, read-out: Control/Injury; for pest or weed control at 140 g/ha: rate 140 g ae/ha; for pest or weed control at 280 g/ha: rate 280 g ae/ha
Method: (§1) Plants were grown in a soil media composed of 90% by volume Promix BX (Premier Tech Horticulture, Quakertown, PA) and 10% Profile Greens Grade (Profile Products LLC, Buffalo Grove, IL). Promix BX contains approximately 83% Sphagnum Peat Moss, 13% Perlite, 5% vermiculite, and proprietary amounts of limestone, starter fertilizer, and wetting agent. Profile Greens Grade is a sand-sized granule formed from calcining illite and montmorillonite clay. Several seeds of each species were planted in 10 cm square pots and top watered twice daily. Plant material was propagated in a warm greenhouse with temperature ranging from 25 to 28° C. and 50 to 60% relative humidity at the Corteva Global Headquarters (Indianapolis, Indiana, USA). Natural light was supplemented with 1000-watt metal halide overhead lamps with an average illumination of 500 μE m^−2 s^−1 photosynthetic active radiation for 16 consecutive hours each day. Plants were top-watered prior to herbicide application and sub-watered after herbicide application.
(§2) Appropriate amounts of test materials were weighed out into glass vials in their technical form to deliver either 140 or 280 g acid equivalent (ae)/ha. The samples were dissolved in 3 ml of Solvent 1. Solvent 1 is 97% acetone and 3% dimethyl sulfoxide and serves as a general-purpose solvent (GPS) for dissolving technical materials. […] The samples were then diluted to their final concentration using 17 ml of solvent 2 for a total of 20 ml of spray solution. Solvent 2 contains 41.58% GPS, 45.53% water, 11.88% isopropyl alcohol, 0.99% crop oil concentrate and 0.02% Trition X-155 surfactant. All percentages are listed on a volume basis. Dicamba diglycolamine was applied as a formulated herbicide, Clarity™ and diluted with solvent 2 to compare all materials in the same spray solution.
(§3) Herbicide applications were made to 3 to 4 replicates of each plant species at the 2 to 8 leaf stage, depending on the species. Treatments were applied with a research track-sprayer (Generation III Research Sprayer manufactured by DeVries Manufacturing in Hollandale, MN, USA) calibrated to deliver a spray volume of 187 L/ha. The track-sprayer was fitted with an 8003E nozzle from Spray Systems Company (North Avenue and Schmale Road, P.O. Box 7900, Wheaton, IL 60187), and used a spray pressure of 276 kPa pressure and a speed of 3.1 km/h. The nozzle height was 46 cm above the plant canopy. The experimental design used for the trials was a randomized complete block with 3 or 4 replications per treatment. After application, plants were placed on carts according to the randomization and returned to the greenhouse. Plants were sub-watered after treatment with Indianapolis city water or fertilized three times a week with a commercial fertilizer solution (Jack's Professional 15-5-15 4 Ca 2 Mg fertilizer (manufactured by JR PETERS INC., 6656 Grant Way, Allentown, PA 18106; www.jrpeters.com). Percent visual control assessments were made on a scale of 0 to 100% (where 0 was no control and 100 was complete plant death) at 7, 14, and 21 days after treatment.
(§4) In conformity with the methods outlined in Example 49, the effect of representative experimental compounds on the growth of Amaranthus rudis (AMATA), common name tall water hemp, was determined at 2 different levels (respectively, 140 and 280 g acid equivalent (ae)/ha) of the experimental actives tested. Plants were treated with one of the compounds, a control plant was not treated. Twenty-one days after treatment, the plants were measured. The data is present as a percent reduction in plant size relative to the untreated control.

[2] = system: Ambrosia artemisiifolia (AMBEL); assay type: in vivo, Ambrosia artemisiifolia (common ragweed); details: post-emergence, 504 h, AMBEL, postemergence, read-out: Control/Injury; for pest or weed control at 140 g/ha: rate 140 g ae/ha; for pest or weed control at 280 g/ha: rate 280 g ae/ha
Method: as §1, §2, §3
as §4, with “Ambrosia artemisiifolia (AMBEL), (common ragweed),” for “Amaranthus rudis (AMATA), common name tall water hemp,”

[3] = system: Kochia scoparia (KCHSC); assay type: in vivo; details: Bassia scoparia, post-emergence, 504 h, KCHSC, postemergence, read-out: Control/Injury; for pest or weed control at 140 g/ha: rate 140 g ae/ha; for pest or weed control at 280 g/ha: rate 280 g ae/ha
Method: as §1, §2, §3
as §4, with “Kochia scoparia (KCHSC)” for “Amaranthus rudis (AMATA), common name tall water hemp,”

[4] = system: Amaranthus palmeri (AMAPA); assay type: in vivo, Amaranthus palmeri (Palmer amaranth); details: post-emergence, 504 h, postemergence, read-out: Control/Injury; for pest or weed control at 140 g/ha: rate 140 g ae/ha; for pest or weed control at 280 g/ha: rate 280 g ae/ha
Method: as §1, §2, §3
as §4, with “palmeri (AMAPA),” for “rudis (AMATA),”, “name, Palmer amaranth,” for “name tall water hemp,”

[5] = system: Conyza canadensis (L.) (ERICA); assay type: in vivo, Conyza canadensis (L.) (Horseweed); details: Erigeron canadensis, post-emergence, 504 h, ERICA, postemergence, read-out: Control/Injury; for pest or weed control at 140 g/ha: rate 140 g ae/ha; for pest or weed control at 280 g/ha: rate 280 g ae/ha
Method: as §1, §2, §3
as §4, with “Conyza canadensis (L.), (ERICA),” for “Amaranthus rudis (AMATA),”, “name, Horseweed,” for “name tall water hemp,”

[6] = percent reduction vs untreated, 21 days after treatment
[7] = R-AMAPA, percent reduction vs untreated control, 21 days after treatment
[8] = percent reduction vs untreated control, 21 days after treatment

Structure (SMILES) | pest or weed control at 140 g/ha [1] | pest or weed control at 280 g/ha [1] | pest or weed control at 140 g/ha [2] | pest or weed control at 280 g/ha [2] | pest or weed control at 140 g/ha [3, 6] | pest or weed control at 280 g/ha [3, 6] | pest or weed control at 140 g/ha ([4]; AMAPA) | pest or weed control at 280 g/ha ([4]; AMAPA) | pest or weed control at 140 g/ha [5] | pest or weed control at 280 g/ha [5] | pest or weed control at 140 g/ha [5, 6] | pest or weed control at 280 g/ha [5, 6] | pest or weed control at 140 g/ha [3] | pest or weed control at 280 g/ha [3] | pest or weed control at 140 g/ha [4, 7] | pest or weed control at 280 g/ha [4, 7] | pest or weed control at 140 g/ha [5, 8] | pest or weed control at 280 g/ha [5, 8]
CCc1nnc(OC(=O)c2c(Cl)ccc(Cl)c2OC)s1 [Compound A-119] | 20% | 13% | 5% | 10% | 10% | 3% | 8% | 20% | 0% | 10% | – | – | – | – | – | – | – | –
COc1c(Cl)ccc(Cl)c1C(=O)NNCc1ccccc1 [Compound A-111] | 18% | 28% | 25% | 35% | 5% | 5% | 20% | 33% | 8% | 10% | – | – | – | – | – | – | – | –
COc1c(Cl)ccc(Cl)c1C(=O)NNc1nc2ccccc2o1 [Compound A-109] | 2% | 3% | 23% | 20% | 0% | 3% | 8% | 5% | 3% | 5% | – | – | – | – | – | – | – | –
COc1c(Cl)ccc(Cl)c1C(=O)NNc1nc(C)cs1 [Compound A-108] | 18% | 28% | 5% | 15% | 0% | 3% | 8% | 28% | 5% | 8% | – | – | – | – | – | – | – | –
COc1c(Cl)ccc(Cl)c1C(=O)NOc1ccccc1 [Compound A-124] | 3% | 10% | 20% | 28% | 0% | 0% | 4% | 3% | 0% | 3% | – | – | – | – | – | – | – | –
COc1c(Cl)ccc(Cl)c1C(=O)N1CCCCO1 [Compound A-104] | 73% | 92% | 5% | 15% | 3% | 13% | 45% | 65% | 0% | 10% | – | – | – | – | – | – | – | –
CCCCCCNC(=O)c1c(Cl)ccc(Cl)c1OC [Compound A-128] | 3% | 8% | 3% | 5% | 0% | 0% | 3% | 5% | – | – | 3% | 5% | – | – | – | – | – | –
COc1c(Cl)ccc(Cl)c1C(=O)O/N=C/c1cc(/C=N/OC(=O)c2c(Cl)ccc(Cl)c2OC)cc(/C=N/OC(=O)c2c(Cl)ccc(Cl)c2OC)c1 [Compound A-99] | 84% | 78% | 96% | 95% | 93% | 95% | 90% | 80% | 97% | 99% | – | – | – | – | – | – | – | –
COc1c(Cl)ccc(Cl)c1C(=O)O/N=C/c1ccccc1 [Compound A-70] | 52% | 77% | 78% | 97% | – | – | – | – | – | – | – | – | 73% | 88% | 72% | 78% | 87% | 93%
COc1c(Cl)ccc(Cl)c1C(=O)ONC(C)=O [Compound A-68] | 23% | 40% | 55% | 58% | – | – | – | – | – | – | – | – | 58% | 82% | 42% | 52% | 8% | 23%

From patent US20240122179A1, “AUXINIC HERBICIDES AND METHODS OF USE THEREOF” (CORTEVA AGRISCIENCE LLC, priority 2021, published 2024)
